Reference: PMC2713172 (Biochemistry, 2008)
Read-outs that look alike come from different tables or passages of the source.

Columns and labels:
CYP2C9 F114L mutant [1] = biological target: T1, CYP2C9 F114L mutant (Homo sapiens, UniProt P11712, F114L); conditions: F114L
CYP2C9 F100L mutant [2] = biological target: T2, CYP2C9 F100L mutant (Homo sapiens, UniProt P11712, F100L); assay: in vitro; conditions: pH 7.4
CYP2C9 F114L mutant [3] = biological target: T1, CYP2C9 F114L mutant
CYP2C9 F476L mutant [4] = biological target: T3, CYP2C9 F476L mutant (Homo sapiens, UniProt P11712, F476L); assay: biochemical
[5] = biological target: T4, CYP2C9 F114L/F476L double mutant (Homo sapiens, UniProt P11712, F114L/F476L); conditions: F114L/F476L
[6] = biological target: T5, CYP2C9 F114W/F476W double mutant (Homo sapiens, UniProt P11712, F114W/F476W); assay: biochemical
wild-type CYP2C9 [7] = biological target: T6, wild-type CYP2C9 (Homo sapiens, UniProt P11712); assay: biochemical
CYP2C9 F114W mutant [8] = biological target: T7, CYP2C9 F114W mutant (Homo sapiens, UniProt P11712, F114W)
CYP2C9 F476W mutant [9] = biological target: T8, CYP2C9 F476W mutant (Homo sapiens, UniProt P11712, F476W)
[10] = biological target: T5, CYP2C9 F114W/F476W double mutant; assay: in vitro; conditions: pH 7.4
CYP2C9 F114W mutant [11] = biological target: T7, CYP2C9 F114W mutant; conditions: F114W
CYP2C9 F114W mutant [12] = biological target: T7, CYP2C9 F114W mutant; assay: in vitro; conditions: pH 7.4
CYP2C9 F114L mutant [13] = biological target: T1, CYP2C9 F114L mutant; assay: biochemical
CYP2C9 F476W mutant [14] = biological target: T8, CYP2C9 F476W mutant; remark: listed apart in the source
CYP2C9 F476W mutant [15] = biological target: T8, CYP2C9 F476W mutant; assay: in vitro; conditions: pH 7.4
CYP2C9 F476L mutant [16] = biological target: T3, CYP2C9 F476L mutant
CYP2C9 F476W mutant [17] = biological target: T8, CYP2C9 F476W mutant; remark: listed apart in the source
wild-type CYP2C9 [18] = biological target: T6, wild-type CYP2C9
CYP2C9 F114W mutant [19] = biological target: T7, CYP2C9 F114W mutant; assay: biochemical
wild-type CYP2C9 [20] = biological target: T6, wild-type CYP2C9; remark: listed apart in the source
[21] = biological target: T5, CYP2C9 F114W/F476W double mutant
[22] = biological target: T4, CYP2C9 F114L/F476L double mutant
[23] = biological target: T5, CYP2C9 F114W/F476W double mutant; conditions: F114W/F476W
CYP2C9 F100L mutant [24] = biological target: T2, CYP2C9 F100L mutant; conditions: F100L
wild-type CYP2C9 [25] = biological target: T6, wild-type CYP2C9; conditions: WT; for T1, 2C9 + CO: dithionite/CO
wild-type CYP2C9 [26] = biological target: T6, wild-type CYP2C9; remark: listed apart in the source

Question: How did the “percent of wild-type ΔA/K” value (CYP2C9 F114L mutant [1]) turn out when C[C@H](C(=O)O)c1ccc(-c2ccccc2)c(F)c1 [(S)-flurbiprofen] was run?
Answer: 46%

Question: What about the ΔA/K (CYP2C9 F114L mutant [1]) of the same compound?
Answer: 2.4 μM^−1 × 10^−3

Question: What about the “ΔAmax (maximum observed difference 390–420 nm)” value (CYP2C9 F114L mutant [1]) of the same compound?
Answer: 10 ± 0.4 ×10^−3

Question: And the Km at 20 min (CYP2C9 F100L mutant [2])?
Answer: 34.8 ± 7 µM

Question: What about the “percent of wild-type kcat/Km” value (CYP2C9 F114L mutant [3]) of the same compound?
Answer: 28%

Question: What about the Kd (CYP2C9 F476L mutant [4]) of the same compound?
Answer: 9.1 ± 1 µM

Question: And the “percent of wild-type ΔA/K” value [5]?
Answer: 8%

Question: And the ΔA/K [5]?
Answer: 0.4 μM^−1 × 10^−3

Question: What about the “ΔAmax (maximum observed difference 390–420 nm)” value [5] of the same compound?
Answer: 4.4 ± 0.2 ×10^−3

Question: And the Kd [6]?
Answer: 22.3 ± 4.1 µM

Question: And the Kd (wild-type CYP2C9 [7])?
Answer: 3.4 ± 0.4 µM

Question: What about the “percent of wild-type kcat/Km” value (CYP2C9 F114W mutant [8]) of the same compound?
Answer: 120%

Question: What about the kcat (CYP2C9 F114W mutant [8]; substrate hydroxylation) of the same compound?
Answer: 0.153 ± 0.0067 s⁻¹

Question: And the “percent of wild-type ΔA/K” value (CYP2C9 F476W mutant [9]; F476W)?
Answer: 5%

Question: What about the ΔA/K (CYP2C9 F476W mutant [9]; F476W) of the same compound?
Answer: 0.3 μM^−1 × 10^−3

Question: And the fraction high spin (CYP2C9 F476W mutant [9]; F476W + ligand, used for the NMR distance calculation)?
Answer: 0.06

Question: What about the Km at 20 min [10] of the same compound?
Answer: 237 ± 11.8 µM

Question: What about the “percent of wild-type ΔA/K” value (CYP2C9 F114W mutant [11]) of the same compound?
Answer: 160%

Question: And the ΔA/K (CYP2C9 F114W mutant [11])?
Answer: 8.5 μM^−1 × 10^−3

Question: And the “ΔAmax (maximum observed difference 390–420 nm)” value (CYP2C9 F114W mutant [11])?
Answer: 34 ± 0.4 ×10^−3

Question: And the Km at 20 min (CYP2C9 F114W mutant [12])?
Answer: 19.5 ± 3.2 µM

Question: What about the Kd (CYP2C9 F114L mutant [13]) of the same compound?
Answer: 4.1 ± 0.6 µM

Question: And the “decrease of efficiency of turnover relative to wild-type” value (CYP2C9 F476W mutant [14])?
Answer: 20 fold

Question: And the “percent of wild-type kcat/Km” value (CYP2C9 F476W mutant [14])?
Answer: 5%

Question: And the kcat (CYP2C9 F476W mutant [14]; substrate hydroxylation)?
Answer: 0.0267 ± 0.0033 s⁻¹

Question: What about the Km at 20 min (CYP2C9 F476W mutant [15]) of the same compound?
Answer: 105 ± 3.9 µM

Question: What about the “percent of wild-type kcat/Km” value (CYP2C9 F476L mutant [16]; F476L) of the same compound?
Answer: 29%

Question: What about the “decrease of the efficiency of metabolism” value (CYP2C9 F476L mutant [16]; F476→L mutation vs wild-type) of the same compound?
Answer: 70%

Question: What about the H2O2/O2 (CYP2C9 F476W mutant [17]) of the same compound?
Answer: 0.71

Question: What about the H2O/Metabolite (CYP2C9 F476W mutant [17]) of the same compound?
Answer: 1.6

Question: What about the Metabolite/NADPH (CYP2C9 F476W mutant [17]; coupling efficiency) of the same compound?
Answer: 0.06

Question: What about the H2O2/O2 (wild-type CYP2C9 [18]; WT) of the same compound?
Answer: 0.43

Question: And the H2O/Metabolite (wild-type CYP2C9 [18]; WT)?
Answer: 0.7

Question: What about the Metabolite/NADPH (wild-type CYP2C9 [18]; WT, coupling efficiency) of the same compound?
Answer: 0.21

Question: And the “coupling of hydroxylation to NADPH consumption” value (wild-type CYP2C9 [18]; wild-type CYP2C9)?
Answer: ~ 20%

Question: What about the Kd (CYP2C9 F114W mutant [19]) of the same compound?
Answer: 4 ± 0.2 µM

Question: And the “percent of wild-type kcat/Km” value (wild-type CYP2C9 [20]; WT)?
Answer: 100%

Question: And the kcat (wild-type CYP2C9 [20]; WT, substrate hydroxylation)?
Answer: 0.15 ± 0.0067 s⁻¹

Question: And the Km at 20 min (wild-type CYP2C9 [20]; human, pH 7.4)?
Answer: 22.9 ± 3.7 µM

Question: What about the “percent of wild-type kcat/Km” value [21] of the same compound?
Answer: 3%

Question: And the kcat ([21]; substrate hydroxylation)?
Answer: 0.0517 ± 0.0013 s⁻¹

Question: What about the “percent of wild-type kcat/Km” value [22] of the same compound?
Answer: 3%

Question: And the “percent of wild-type ΔA/K” value [23]?
Answer: 6%

Question: And the ΔA/K [23]?
Answer: 0.3 μM^−1 × 10^−3

Question: What about the “ΔAmax (maximum observed difference 390–420 nm)” value [23] of the same compound?
Answer: 7.3 ± 0.4 ×10^−3

Question: And the “percent of wild-type ΔA/K” value (CYP2C9 F100L mutant [24])?
Answer: 137%

Question: What about the ΔA/K (CYP2C9 F100L mutant [24]) of the same compound?
Answer: 7.3 μM^−1 × 10^−3

Question: What about the “ΔAmax (maximum observed difference 390–420 nm)” value (CYP2C9 F100L mutant [24]) of the same compound?
Answer: 16 ± 0.3 ×10^−3

Question: What about the “T1, 2C9” value (wild-type CYP2C9 [25]; proton H2) of the same compound?
Answer: 2.44 (0.10) seconds

Question: What about the “r, distance of proton from the heme iron” value (wild-type CYP2C9 [25]; proton H2) of the same compound?
Answer: 5.95 (0.11) angstroms

Question: What about the “T1, 2C9 + CO” value (wild-type CYP2C9 [25]; proton H2) of the same compound?
Answer: 2.79 (0.14) seconds

Question: What about the “T1, 2C9” value (wild-type CYP2C9 [25]; proton H4′) of the same compound?
Answer: 3.44 (0.26) seconds

Question: What about the “r, distance of proton from the heme iron” value (wild-type CYP2C9 [25]; proton H4′) of the same compound?
Answer: 6.11 (0.19) angstroms

Question: What about the “T1, 2C9 + CO” value (wild-type CYP2C9 [25]; proton H4′) of the same compound?
Answer: 4.25 (0.44) seconds

Question: What about the “T1, 2C9” value (wild-type CYP2C9 [25]; proton H5) of the same compound?
Answer: 2.17 (0.07) seconds

Question: What about the “r, distance of proton from the heme iron” value (wild-type CYP2C9 [25]; proton H5) of the same compound?
Answer: 6.27 (0.16) angstroms

Question: What about the “T1, 2C9 + CO” value (wild-type CYP2C9 [25]; proton H5) of the same compound?
Answer: 2.26 (0.10) seconds

Question: And the “T1, 2C9” value (wild-type CYP2C9 [25]; proton H6)?
Answer: 1.79 (0.05) seconds

Question: And the “r, distance of proton from the heme iron” value (wild-type CYP2C9 [25]; proton H6)?
Answer: 7.30 (0.19) angstroms

Question: What about the “T1, 2C9 + CO” value (wild-type CYP2C9 [25]; proton H6) of the same compound?
Answer: 2.04 (0.10) seconds

Question: And the “T1, 2C9” value (wild-type CYP2C9 [25]; protons CH3)?
Answer: 0.68 (0.01) seconds

Question: And the “r, distance of proton from the heme iron” value (wild-type CYP2C9 [25]; protons CH3)?
Answer: 7.82 (0.09) angstroms

Question: What about the “T1, 2C9 + CO” value (wild-type CYP2C9 [25]; protons CH3) of the same compound?
Answer: 0.68 (0.01) seconds

Question: What about the “T1, 2C9” value (wild-type CYP2C9 [25]; protons H2′/6′) of the same compound?
Answer: 2.38 (0.07) seconds

Question: What about the “r, distance of proton from the heme iron” value (wild-type CYP2C9 [25]; protons H2′/6′) of the same compound?
Answer: 6.02 (0.37) angstroms

Question: And the “T1, 2C9 + CO” value (wild-type CYP2C9 [25]; protons H2′/6′)?
Answer: 2.77 (0.07) seconds

Question: What about the “T1, 2C9” value (wild-type CYP2C9 [25]; protons H3′/5′) of the same compound?
Answer: 2.42 (0.08) seconds

Question: And the “r, distance of proton from the heme iron” value (wild-type CYP2C9 [25]; protons H3′/5′)?
Answer: 5.82 (0.15) angstroms

Question: What about the “T1, 2C9 + CO” value (wild-type CYP2C9 [25]; protons H3′/5′) of the same compound?
Answer: 2.70 (0.11) seconds

Question: What about the fraction high spin (wild-type CYP2C9 [26]; WT + ligand, used for the NMR distance calculation) of the same compound?
Answer: 0.16

Question: What about the “percent of wild-type ΔA/K” value (wild-type CYP2C9 [26]; Wild-type) of the same compound?
Answer: 100%

Question: And the ΔA/K (wild-type CYP2C9 [26]; Wild-type)?
Answer: 5.3 μM^−1 × 10^−3

Question: What about the “ΔAmax (maximum observed difference 390–420 nm)” value (wild-type CYP2C9 [26]; Wild-type) of the same compound?
Answer: 18 ± 0.5 ×10^−3
